Laboratory results as given in the supplement of paper PMC13380429.

Tests used:
[1] = tested on: HepG2; experiment: cell viability relative to DMSO; higher = less toxic; conditions: 72 h
[2] = tested on: Calu-3; experiment: as above; conditions: 72 h
[3] = tested on: Caco-2; experiment: as above; conditions: 72 h
[4] = tested on: U2OS; experiment: as above; conditions: 72 h
[5] = tested on: Vero E6; experiment: as above; conditions: 72 h
[6] = tested on: HepG2; experiment: drug sensitivity score (DSS) for viability; higher = more toxic; extreme values may be limits of the assay; conditions: 72 h
[7] = tested on: Calu-3; experiment: as above; conditions: 72 h
[8] = tested on: Caco-2; experiment: as above; conditions: 72 h
[9] = tested on: U2OS; experiment: as above; conditions: 72 h
[10] = tested on: Vero E6; experiment: as above; conditions: 72 h
[11] = tested on: A549-ACE2 infected with SARS-CoV-2; experiment: cell count relative to DMSO; higher = less toxic; conditions: 24 h
[12] = tested on: A549-ACE2; experiment: drug-induced phospholipidosis relative to tamoxifen; higher = more phospholipidosis
[13] = tested on: A549-ACE2 infected with SARS-CoV-2; experiment: morphology score (similarity to uninfected cells); higher = more like uninfected cells; conditions: 24 h
[14] = tested on: HepG2; experiment: relative viability EC50 (midpoint between 100% and the lowest measured viability); higher = less toxic; conditions: 72 h
[15] = tested on: Calu-3; experiment: as above; conditions: 72 h
[16] = tested on: Caco-2; experiment: as above; conditions: 72 h
[17] = tested on: U2OS; experiment: as above; conditions: 72 h
[18] = tested on: Vero E6; experiment: as above; conditions: 72 h
[19] = tested on: A549-ACE2 infected with SARS-CoV-2; experiment: SARS-CoV-2 infection rate relative to DMSO; higher = more infection; conditions: 24 h
[20] = tested on: A549-ACE2; experiment: phospholipidosis EC50; higher = less potent phospholipidosis inducer; conditions: 24 h

C/C(=N\NC(=S)N1CCC1)c1ccccn1
Conditions | SARS-CoV-2 infection rate, [19] [%] | cell count, [11] [%] | cell viability, [1] [%] | cell viability, [2] [%] | cell viability, [3] [%] | cell viability, [4] [%] | cell viability, [5] [%] | morphology score, [13]
1 nM | – | – | 104 | 97.3 | 91.8 | 101 | 102 | –
10 nM | – | – | 74.3 | 102 | 14.9 | 101 | 96.6 | –
100 nM | – | – | 5.6 | 56.8 | 17.9 | 59 | 70.5 | –
0.1 µM | 104 | 96 | – | – | – | – | – | -0.24
0.3 µM | 104 | 95 | – | – | – | – | – | -0.09
1000 nM | – | – | 11.4 | 38.4 | 39.6 | 28.1 | 31.3 | –
1 µM | 104 | 89 | – | – | – | – | – | -0.19
3 µM | 68 | 88 | – | – | – | – | – | 0.17
10000 nM | – | – | 21 | 25.4 | 34 | 15.4 | 14.5 | –

Conditions | drug sensitivity score | relative viability EC50 [nM]
[6] | 32.8 | –
[7] | 18 | –
[8] | 38.4 | –
[9] | 18.8 | –
[10] | 16.4 | –
[14] | – | 14.8
[15] | – | 90.7
[16] | – | 2.4
[17] | – | 122
[18] | – | 206

drug-induced phospholipidosis [%], [12]
Conditions | 0.3 µM | 0.833333 µM | 3.33333 µM | 6.66667 µM | 10 µM | 30 µM
24 h | 11.7 | 5.99 | 0.42 | -4.61 | -12.7 | -11.9
48 h | – | – | – | – | -6.55 | –

CCC[C@@H]1CC2=CC(=O)CC[C@]2(C)[C@H]2CC[C@@]3(C)[C@@H](CC[C@@]3(O)CCC(=O)O)[C@H]12
Conditions | SARS-CoV-2 infection rate, [19] [%] | cell count, [11] [%] | cell viability, [1] [%] | cell viability, [2] [%] | cell viability, [3] [%] | cell viability, [4] [%] | cell viability, [5] [%] | morphology score, [13]
1 nM | – | – | 87.5 | 101 | 87.4 | 98.9 | 94.6 | –
10 nM | – | – | 105 | 92.5 | 98.4 | 98.3 | 91 | –
100 nM | – | – | 93.3 | 100 | 95.7 | 97.2 | 97.6 | –
0.3 µM | 98 | 95 | – | – | – | – | – | 0.12
1000 nM | – | – | 92 | 98.5 | 94.9 | 100 | 89.1 | –
3 µM | 105 | 103 | – | – | – | – | – | -0.07
10000 nM | – | – | 101 | 102 | 89.8 | 93.8 | 95.4 | –
10 µM | 97 | 100 | – | – | – | – | – | 0.07
30 µM | 96 | 99 | – | – | – | – | – | 0.1

Conditions | drug sensitivity score | relative viability EC50 [nM]
[6] | 0 | –
[7] | 0 | –
[8] | 0 | –
[9] | 0 | –
[10] | 0 | –
[14] | – | > 10000
[15] | – | > 10000
[16] | – | > 10000
[17] | – | > 10000
[18] | – | > 10000

drug-induced phospholipidosis [%], [12]
Conditions | 0.3 µM | 0.833333 µM | 3.33333 µM | 6.66667 µM | 10 µM | 30 µM
24 h | 2.3 | -0.41 | -0.2 | 0.45 | 2.66 | 5.67
48 h | 3.88 | 0.27 | -1.07 | 1.45 | 3.16 | 6.48
72 h | 3.28 | -0.65 | -0.652 | 0.565 | 3.59 | 9.53

CCN1CCN(c2ccc(C(C)(C)NC(=O)c3cc4[nH]c5ccccc5c(=O)c4cc3F)cn2)CC1
Conditions | SARS-CoV-2 infection rate, [19] [%] | cell count, [11] [%] | cell viability, [1] [%] | cell viability, [2] [%] | cell viability, [3] [%] | cell viability, [4] [%] | cell viability, [5] [%] | morphology score, [13]
1 nM | – | – | 95.7 | 96.4 | 102 | 99.3 | 109 | –
10 nM | – | – | 104 | 87.8 | 105 | 96.5 | 102 | –
100 nM | – | – | 103 | 92.7 | 107 | 94.2 | 102 | –
0.3 µM | 92 | 102 | – | – | – | – | – | 0.33
1000 nM | – | – | 77 | 76.7 | 116 | 105 | 97.2 | –
3 µM | 34 | 93 | – | – | – | – | – | 0.74
10000 nM | – | – | 52.9 | 43.3 | 86.5 | 25.5 | 92 | –
10 µM | 11 | 97 | – | – | – | – | – | 0.74
30 µM | 25 | 72 | – | – | – | – | – | 0.53

Conditions | drug sensitivity score | phospholipidosis EC50 [nM] | relative viability EC50 [nM]
[6] | 5.4 | – | –
[7] | 5.6 | – | –
[8] | 0 | – | –
[9] | 3.7 | – | –
[10] | 0 | – | –
[15] | – | – | 1180
[16] | – | – | > 10000
[17] | – | – | 3530
[18] | – | – | > 10000
[20] | – | 11600 | –

drug-induced phospholipidosis [%], [12]
Conditions | 0.3 µM | 0.833333 µM | 3.33333 µM | 6.66667 µM | 10 µM | 30 µM
24 h | 6.26 | -2.09 | -3.71 | 11.8 | 31.3 | 80.5
48 h | 4.42 | 0.5 | – | – | – | 67.5
72 h | 12.4 | 4.2 | – | – | – | –
